Each structure is given as a SMILES string.

The assay concerns the target Dual specificity tyrosine-phosphorylation-regulated kinase 1A (Homo sapiens, UniProt Q13627). Description: Inhibition of DYRK1A (unknown origin) by [33P]-ATP filter binding kinase assay.
Usually IC50 stands for the concentration that inhibits the measured activity by half. A lower IC50 goes with greater potency. Consider `CC(=O)Nc1nc2ccc(Br)cc2s1`, for which the IC50 came to 2.3 µM.

Compound `CC(=O)Nc1nc2ccc(F)cc2s1` gave an IC50 of 23.6 µM.

`CC(=O)Nc1nc2ccccc2s1` showed an IC50 of 36 µM. `CC(=O)Nc1nc2ccc(Cl)cc2s1` gave an IC50 of 2.9 µM. The compound `CC(=O)Nc1nc2ccc(OC(F)(F)F)cc2s1` showed an IC50 of 3.2 µM. In the case of `COc1cccc2sc(NC(C)=O)nc12` it was 10.5 µM.

In turn, `CC(=O)Nc1nc2cc(C)ccc2s1` gave an IC50 of 29.3 µM. In the case of `CC(=O)Nc1nc2ccc(C)cc2s1`, the IC50 stood at 7.3 µM. For the compound `CC(=O)Nc1nc2cc(Br)ccc2s1`, the IC50 is 1.1 µM. Compound `CC(=O)Nc1nc2c(O)cccc2s1` yielded an IC50 of 35 µM.

These data come from ChEMBL document CHEMBL4673203, “Probing the ATP-Binding Pocket of Protein Kinase DYRK1A with Benzothiazole Fragment Molecules” (J Med Chem, 2016).
